Measured values reported in patent US4511390A, “Aralkylcarbamoyl peptide alcohols” (E. I. Du Pont de Nemours and Company, priority 1983, dated 1985).

Columns and labels:
corn plants = assay: Greenhouse test, growth of nitrate-deficient corn plants; format: in vivo; details: spray containing 50 ppm; 2-week old corn plants deficient in nitrate ion
Experimental: Greenhouse tests were conducted by germinating corn seeds in a 25.4 cm pot containing a commercial potting soil mixture. After two weeks, seedlings were culled, leaving two plants in each pot. Distilled water was applied to maintain moisture levels and to leach carry-over nutrients from the potting soil mixtures. The remaining corn plants were randomized and divided into several groups for testing. Each test plant received a single 10 ml application of a test compound at 50 ppm, which was applied from a hand-held air-pressurized sprayer while the plant was rotated on a turntable in a spray hood. Each test compound was dissolved in a solution containing 50% (by volume) water and 50% AGWT diluent. AGWT diluent contains acetone, glycerol, water and polyoxyethylene sorbitan monolaurate in a volumetric ratio of 459:20:500:1. 250 mL of a complete, nitrate ion-free, potassium ion-free, and phosphate ion-free Hoagland nutrient solution were added to each pot twice weekly. This nutrient solution was supplemented with distilled water to maintain proper soil moisture. […] Plants were allowed to grow to maturity and yields were measured at the conclusion of each test.

corn root sections [1] = assay: Nitrate ion uptake by corn root sections (nitrate ion specific electrode); format: cell-based, Corn (Pioneer Hybrid 3320); details: 50 ppm test compound; corn root sections
Experimental: (§1) Corn (Pioneer Hybrid 3320), wheat (Arther), sorghum (SC-599-6), barley (CM-721), rice (m101), and cotton (Tamcot SP-37) seeds were disinfected with a 1% sodium hypochlorite solution and placed in 20.3 cm×30.5 cm×5.1 cm Pyrex glass utility trays which were lined with 4 layers of bleached paper towels and irrigated with 150 mL of 0.2 mM CaCl2 solution. The trays were covered with plastic food wrap, perforated to permit air exchange, and placed in a dark growth room which was maintained at 30° and 90% relative humidity. About 48 hours later, another 150 mL of 0.2 mM CaCl2 solution was added to each tray to maintain water sauration of the paper towels.
(§2) Two centimeter root sections were cut 0.5 to 2.5 cm from the tip of 3-day-old etiolated seedling roots. Batches of 20 (for corn and cotton), or 40 (for wheat, barley and rice) root sections were tied in cheesecloth bags, leaving a 20-30 cm length of string to facilitate movement between test solutions. Root tissue was washed at 30±1° by immersing the cheesecloth bags in a well-aerated 0.2 mM K2 HPO4 /KH2 PO4 solution, pH 6.0, for 4 hours. During the last 30 minutes of this washing period, 1 mM potassium nitrate solution was introduced to induce nitrate reductase activity. For uniformity, 100 mL washing solution was used for every bag of root sections (about 300 mg fresh tissue).
Nitrate ion uptake into corn roots was also determined by homogenizing root segments previously exposed to the nitrate absorption solution (without added ^36 ClO3⊖) with a precooled glass homogenizer in 5 mL of cold extraction medium. This medium contained 23 mM phosphate buffer pH 8.8, 5 mM cysteine, 2.5 mM EDTA, and 0.1% Neutronyx 600 (Onyx Chemical Co., Jersey City, N.J.). The resulting homogenate was centrifuged at 30,000 xg for 15 minutes, and an aliquot of the resulting supernatant solution reserved for nitrate ion determination, using an Orion nitrate ion specific electrode. The same tissue extract was used for nitrate reductase activity determination (below).
(§3) Test compounds are identified in Table I by Example number, and by the identity of substituents X, Y, Z and R in the following formula: [drawing 23]

corn root sections [2] = assay: Ammonium ion uptake by corn root sections (ammonium ion-specific electrode); format: cell-based, Corn (Pioneer Hybrid 3320); details: 50 ppm test compound
Experimental: as §1
Two centimeter root sections were cut 0.5 to 2.5 cm from the tip of 3-day-old etiolated seedling roots. Batches of 20 (for corn and cotton), or 40 (for wheat, barley and rice) root sections were tied in cheesecloth bags, leaving a 20-30 cm length of string to facilitate movement between test solutions. Root tissue was washed at 30±1° by immersing the cheesecloth bags in a well-aerated 0.2 mM K2 HPO4 /KH2 PO4 solution, pH 6.0, for 4 hours. […]
Ammonium ion uptake was determined by measuring the disappearance of ammonium ion from an uptake solution containing 1 mmol ammonium chloride, 0.2 mM calcium chloride and 5 mM MES buffer, pH 6.0, with an Orion ammonium ion-specific electrode. […]

NO3 Reductase = assay: Nitrate reductase activity in extracts of treated corn root sections; format: cell-based, Corn (Pioneer Hybrid 3320); details: 50 ppm test compound
Experimental: as §1, §2
Nitrate ion uptake into corn roots was also determined by homogenizing root segments previously exposed to the nitrate absorption solution (without added ^36 ClO3⊖) with a precooled glass homogenizer in 5 mL of cold extraction medium. This medium contained 23 mM phosphate buffer pH 8.8, 5 mM cysteine, 2.5 mM EDTA, and 0.1% Neutronyx 600 (Onyx Chemical Co., Jersey City, N.J.). The resulting homogenate was centrifuged at 30,000 xg for 15 minutes, and an aliquot of the resulting supernatant solution reserved for nitrate ion determination, using an Orion nitrate ion specific electrode. […]
Nitrate reductase activity was determined using a modification of the procedure of Hageman and Huckles- by, Methods Enzymol. […]

corn root sections [3] = assay: Nitrate ion uptake by corn root sections measured with radioactive chlorate ion (36ClO3-) as mimic; format: cell-based, Corn (Pioneer Hybrid 3320); details: Zea mays, 50 ppm test compound, read-out: Ion Uptake (percent increase over control) 36ClO3-
Experimental: as §1, §2
Nitrate ion uptake was measured using radioactive chlorate ion (^36 ClO3⊖) as a mimic for nitrate ion (Deane-Drummond et al., Plant Physiol. 70:50-54 (1982)). Uptake was measured by incubating 20 or 40 cheesecloth-bound washed root segments for 30 minutes in 100 mL absorption solution. The absorption solution contained 0.5 mM potassium nitrate, 0.2 mM calcium chloride, 5 mM MES buffer, and 5 mg/L sodium molybdate. This solution was adjusted to pH 6 with potassium hydroxide, and labeled with 10,000 cpm/ml of carrier-free radioactive chlorate ion. Absorption temperatures was maintained at 30±1° in a water bath, and moderate aeration was provided. All test compounds were added to the absorption solution. After the absorption period, the cheesecloth bag containing root sections was rinsed with distilled water for 10 seconds and then immersed in 100 mL of ice-cold, aerated 0.2 mM calcium chloride solution for 20 minutes to remove exchangeable components of absorbed ^36 ClO3⊖. Root sections were then removed from the cheesecloth bags, blotted dry, placed in a preweighed scintillation vial, and weighed to determine fresh tissue weight. One mL water and 10 mL Scinti Verse I (Fisher Scientific Co.) scintillation fluid were added, and radioactivity determined by scintillation counting. The rate of nitrate (^36 ClO3⊖) uptake in micromols per gram fresh weight of tissue per hour was calculated.
as §3

## CC(C)C[C@@H](CO)NC(=O)[C@@H]1CCCN1C(=O)OCc1ccccc1 [Example 1, N-Carbobenzoxy-L-prolyl-L-leucinol]
Corn plants
  Growth of corn plants: stimulated growth
Corn root sections [1]
  Ion Uptake (percent increase over control) NO3-: 40%
Corn root sections [2]
  Ion Uptake (percent increase over control) NH4+: 80%
NO3 Reductase
  NO3- Reductase (percent increase over control): -1%
Corn root sections [3]
  activation at 50 ppm: 26%
